The values that follow are results of earlier work, collected in patent US12605362B2, “Eletriptan hydrobromide for treatment of spinal cord injury and improvement of locomotor function” (TECHNOPHAGE, INVESTIGAÇÃO E DESENVOLVIMENTO EM …, priority 2020, dated 2026).

For the data set the following is noted: in the presence of the selective 5-HT2 antagonists SB204741 and SB242084; cited from earlier work.

Each structure is given as a SMILES string.

As for `c1ccc2nc(N3CCNCC3)ccc2c1` [quipazine], the locomotor-like movements result is reported as “induction in locomotor-like movements”.
